We go through one compound from US9579384B2, “Method of treating bendamustine-responsive conditions in patients requiring reduced volumes for administration” (Eagle Pharmaceuticals, Inc., priority 2012, dated 2017).

Data set [1] can be described thus: Observation of precipitation in the IV fluid during administration to patient. Type of data set: physicochemical. As for the experimental part: In this example, a patient diagnosed with chronic lymphocytic leukemia (CLL) and having chronic kidney disease (GFR<30 ml/min/1.73 m^2) is begun on a treatment protocol with bendamustine. In particular, the patient is administered 360 mg of bendamustine as part of an approximately 114.4 ml infusion on days 1 and 2 of a 28 day cycle. The intravenous formulation is prepared by drawing up 14.4 ml of an RTU (ready to use) liquid containing bendamustine HCl 25 mg/ml, PG 103.2 mg/ml, PEG 1013.4 mg/ml, monothioglycerol 5 mg/ml and 0.08 mg/ml NaOH and mixing it into a 100 ml bag containing 0.9% NaCl. The final bendamustine concentration for the IV fluid is 3.15 mg/ml. The infusion is administered to the patient in less than 15 minutes.
The process of Example 1 is repeated except that the IV infusion volume is approximately 64.4 ml. The same 14.4 ml of an RTU (ready to use) liquid containing bendamustine HCl 25 mg/ml, PG 103.2 mg/ml, PEG 1013.4 mg/ml, monothioglycerol 5 mg/ml and 0.08 mg/ml NaOH is used and it is mixed into a 50 ml bag containing 0.9% NaCl. The final bendamustine concentration for the IV fluid is 5.59 mg/ml. The infusion is administered to the patient in less than 10 minutes.

Data set [2] can be described thus: Measured solubility of bendamustine HCl in the diluent/solubilizer combination at room temperature. Type of data set: physicochemical. The settings on record: aqueous with cosolvent or surfactant or cyclodextrin. As for the experimental part: The solubility of the diluent/solubilizer combination far exceeded the bendamustine concentration, thus assuring the avoidance of precipitated drug prior to or during administration. As will be appreciated by those of ordinary skill, as the concentration of solubilizers increases with respect to the total volume in small administration doses, the solubility of the bendamustine is maintained.
Bendamustine formulations containing the above ingredients are capable of delivering approximately 360 mg of the drug as the HCl salt in volumes of pharmaceutically acceptable diluent ranging from about 120 ml down to about 15 ml.

Where a name gives a salt, the structure may show the parent alone.

For orientation: solubility means the dissolved amount per volume that the medium holds. Take `Cn1c(CCCC(=O)O)nc2cc(N(CCCl)CCCl)ccc21` [bendamustine HCl, Bendamustine HCl]: the “precipitation of bendamustine in the IV fluid during administration” value in data set [1] (14.4 ml RTU liquid (25 mg/ml) in 50 ml 0.9% NaCl, final 5.59 mg/ml, infusion in less than 10 minutes) is “No precipitated bendamustine is observed”; in data set [1] (14.4 ml RTU liquid (25 mg/ml) in 100 ml 0.9% NaCl, final 3.15 mg/ml, infusion in less than 15 minutes), “No precipitated bendamustine is observed”. The solubility in data set [2] (half normal saline/dextrose diluent/solubilizer combination, 50 ml half normal saline/dextrose + 1 ml of 25 mg/ml bendamustine HCl and solubilizers (PG, PEG 400)) amounted to 14.2 mg/mL; in data set [2] (normal saline diluent/solubilizer combination, 50 ml normal saline + 1 ml of 25 mg/ml bendamustine HCl and solubilizers (PG, PEG 400)), 10.5 mg/mL.
